Laboratory results taken from PubChem BioAssay (NCI).
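Assay format: 96-well plates, 48-hour exposure. At the GI50, growth is halved. The concentration for full growth arrest is given as TGI.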 Where a SMILES comes first, the peptide text is derived from it. [ ]: non-standard residue; d: D form. The star is where a group is joined. ξ: configuration not given here. Propanoyl(3-(4-MeO-Ph)) = COc1ccc(CCC(=O)*)cc1; Thr(3ξ) = CC(O)[C@H](N)C(=O)O; dNMeL = CN[C@H](CC(C)C)C(=O)O; ξLac = CC(O)C(=O)O

Legend:
Assay in all cases: inhibition of tumour cell growth, NCI panel, 48 h
SF-539 CNS = test system: SF-539 CNS
A549 NSCLC = test system: A549 NSCLC
OVCAR-3 ovarian = test system: OVCAR-3 ovarian
NCI/ADR-RES ovarian = test system: NCI/ADR-RES ovarian
HOP-92 NSCLC = test system: HOP-92 NSCLC
RXF 393 renal = test system: RXF 393 renal
786-0 renal = test system: 786-0 renal
HCC-2998 colon = test system: HCC-2998 colon
SK-MEL-2 melanoma = test system: SK-MEL-2 melanoma
K-562 leukemia = test system: K-562 leukemia

Row | SMILES | TGI (SF-539 CNS) [µM] | TGI (A549 NSCLC) [µM] | TGI (OVCAR-3 ovarian) [µM] | TGI (NCI/ADR-RES ovarian) [µM] | TGI (HOP-92 NSCLC) [µM] | TGI (RXF 393 renal) [µM] | TGI (786-0 renal) [µM] | TGI (HCC-2998 colon) [µM] | TGI (SK-MEL-2 melanoma) [µM] | TGI (K-562 leukemia) [µM] | GI50 (HOP-92 NSCLC) [µM] | GI50 (SF-539 CNS) [µM] | GI50 (A549 NSCLC) [µM] | GI50 (OVCAR-3 ovarian) [µM] | GI50 (NCI/ADR-RES ovarian) [µM] | GI50 (RXF 393 renal) [µM] | GI50 (HCC-2998 colon) [µM] | GI50 (SK-MEL-2 melanoma) [µM]
1 | O=C(O)CN(CC(=O)O)Cc1ccn(-c2cccc(-n3ccc(CN(CC(=O)O)CC(=O)O)n3)n2)n1 | > 100 | > 100 | > 100 | > 100 | > 100 | > 100 | > 100 | > 100 | > 100 | – | – | – | – | – | – | – | – | –
2 | COc1ccc(S(=O)(=O)Nc2ccc(-c3csc(N4C(=O)/C(=C/c5ccccc5)N=C4c4ccccc4)n3)cc2)cc1Cl | > 100 | > 100 | > 100 | > 100 | 69.7 | 73.3 | > 100 | – | > 100 | > 100 | – | – | – | – | – | – | – | –
3 | O=C1c2ccccc2-c2nnc(-c3ccc(Cl)cc3)cc21 | > 10 | > 10 | > 10 | > 10 | > 10 | > 10 | > 10 | > 10 | > 10 | > 10 | – | – | – | – | – | – | – | –
4 | Cn1c(N=[N+]=[N-])cc(=O)n(C)c1=O | > 100 | > 100 | > 100 | > 100 | > 100 | > 100 | > 100 | > 100 | > 100 | > 100 | – | – | – | – | – | – | – | –
5 | O=[N+]([O-])c1ccc2nc(/C=C(\O)c3ccccc3)c(/C=C(\O)c3ccccc3)nc2c1 | 22.8 | > 58.5 | 31.3 | > 89 | 5.63 | 38.2 | 44.3 | > 100 | > 82.2 | > 100 | 0.195 | – | – | – | – | – | – | –
6 | Cc1oncc1NC1=CC(=O)C(=O)c2ccccc21 | 15.1 | 15.7 | 4.97 | > 100 | 24 | 27.5 | 32.2 | 33.4 | – | 27 | – | – | – | – | – | – | – | –
7 | COc1ccc(NCc2cnc3nc(N)nc(N)c3c2C)cc1 | > 100 | > 100 | > 100 | > 100 | > 89.5 | > 100 | > 100 | > 31.6 | > 100 | > 100 | – | – | – | – | – | – | – | –
8 | COC12OC3CC4(C)C(=CC3OC(OC(C)C1O)C2O)CCC1C4CCC2(C)C(c3ccc(=O)oc3)CCC12O (configuration not stated) | 0.00167 | 0.00166 | 0.00639 | 0.00258 | 0.0347 | 0.0116 | 0.00195 | 0.00945 | 0.00448 | 0.00718 | – | – | – | – | – | – | – | –
9 | NC(=O)C[C@H](NC(=O)C1(NC(=O)[C@H](Cc2ccc(CP(=O)(O)O)cc2)NC(=O)C(=O)O)CCCCC1)C(=O)NCCCc1cccc2ccccc12 | > 10 | > 10 | > 10 | > 10 | > 10 | > 10 | > 10 | > 10 | > 10 | > 10 | – | – | – | – | – | – | – | –
10 | CNc1ncnc2c1nnn2C | > 100 | > 100 | > 100 | > 100 | > 100 | > 100 | > 100 | > 100 | > 100 | > 100 | – | – | – | – | – | – | – | –
11 | CSC1(SC)N2Cc3ccccc3N=C2C1(c1ccccc1)c1ccccc1 | 31.6 | > 100 | 28.3 | > 67 | > 27.3 | > 48.6 | > 100 | 23.2 | > 58.1 | > 100 | – | – | – | – | – | – | – | –
12 | C=CCCC(On1c(-c2ccc(Cl)cc2)csc1=S)c1ccccc1 (configuration not stated) | > 100 | > 100 | > 100 | > 100 | > 100 | > 100 | > 100 | – | > 100 | > 100 | – | – | – | – | – | – | – | –
13 | COC(=O)[C@@H](NC(=O)[C@@H](CC(C)C)N(C)C(=O)[C@@H]1CCCN1C(=O)C(C)O)C(C)OC(=O)CCc1ccc(OC)cc1 (some centres not stated) (H-[ξLac]P[dNMeL][Thr(3ξ)](Propanoyl(3-(4-MeO-Ph)))-OMe) | > 100 | > 100 | > 100 | > 100 | > 100 | > 100 | > 100 | > 100 | > 100 | > 100 | – | – | – | – | – | – | – | –
14 | COc1cc2c(cc1OC(=O)c1cc3ccccc3[nH]1)N=C[C@@H]1CCCN1C2=O | 1.17 | 12 | 0.818 | > 100 | > 100 | 0.36 | 4.23 | 1.12 | 0.55 | 2.83 | – | – | – | – | – | – | – | –
15 | c1ccc(CCN2CCN=C2Cc2ccccc2)cc1 | – | > 100 | > 100 | > 100 | 93.8 | > 100 | > 100 | 38.2 | > 100 | > 100 | – | – | – | – | – | – | – | –
16 | COc1cc(C2c3cc4c(cc3OC3(OC)COC(=O)C23)OCO4)cc(OC)c1OC (configuration not stated) | 0.697 | > 37.8 | 2.45 | 4.39 | > 100 | 11.7 | > 27.1 | 14.9 | > 40.9 | 11 | – | – | – | – | – | – | – | –
17 | Clc1ccc2nc(CC3CCCC3)[nH]c2c1 | 51.7 | 60.8 | 22.7 | 35.6 | 34 | 32.1 | 33.4 | 41.8 | 41.2 | 22.1 | – | – | – | – | – | – | – | –
18 | CCOc1cc2c(cc1O)CC[C@@H]1[C@@H]2CC[C@]2(C)C(OS(=O)OC3CC[C@@H]4[C@H]5CCc6cc(O)c(OCC)cc6[C@@H]5CC[C@@]34C)CC[C@@H]12 (some centres not stated) | 1.85 | 11.3 | 0.813 | 23.7 | > 100 | > 20.5 | > 34.3 | 31.9 | 6.19 | > 55.6 | – | – | – | – | – | – | – | –
19 | Cn1cc(-c2nc(-c3c[nH]c4ccncc34)cs2)c2cc(F)ccc21 | 3.1 | 3.57 | 3.69 | 4.19 | 3.42 | 3.04 | – | 3.08 | 3.58 | – | 1.65 | 1.68 | 1.85 | 1.94 | 1.93 | 1.57 | 1.64 | 1.92
20 | NC(=O)c1ncn2c(=O)n(CCl)nnc12 | > 100 | > 100 | > 100 | > 100 | > 100 | > 100 | > 100 | > 100 | > 100 | > 100 | – | – | – | – | – | – | – | –
